The values below come from patent US20240116946A1 (Gilead Sciences, Inc., priority 2022, published 2024).

Structures are written as SMILES. Read-outs that look alike come from different tables or passages of the source.

In one experiment the test system is SARS-CoV-2-NLuc. The experiment in a line: microbe, parasite or virus in culture. In kind it is cell-based, SARS Coronavirus 2.
Experiment [1] deals with recombinant SARS-CoV-2 Main protease (Mpro) (Severe acute respiratory syndrome coronavirus 2 (2019-nCoV) (SARS-CoV-2), UniProt P0DTD1). The experiment in a line: Cov Mpro Biochemical IC50 Assay. Conditions: fluorogenic peptide substrate 40 μM.
The mark [2] stands for this setting: Severe acute respiratory syndrome coronavirus, 48 h; read-out: MPro EC50.
The mark [3] stands for this setting: recombinant SARS-CoV-2 Mpro 7.5 nM, read-out: MPro IC50.
Setting [4] is: Severe acute respiratory syndrome coronavirus, 48 h, read-out: MPro EC50.

Usually EC50 stands for the concentration needed to bring the measured effect to its halfway point. Usually IC50 stands for the concentration that gives 50% inhibition. As to `COc1cc(-c2cc3[nH]c(=O)n(-c4cncc(Cl)c4C)c(=O)c3s2)c(Cl)cc1F` [Example 743, 6-(2-chloro-4-fluoro-5-methoxy-phenyl)-3-(5-chloro-4-methyl-3-pyridyl)-1H-thieno[3,2-d]pyrimidine-2,4-dione], in the experiment with SARS-CoV-2-NLuc (setting [2]), the EC50 was 16.3 nM. Moreover, the IC50 in experiment [1] (setting [3]) is 12.1 nM.

For `COc1cc(-c2cc3[nH]c(=O)n(-c4nncc5ccccc45)c(=O)c3s2)c(Cl)cc1F` [Example 744], the EC50 with SARS-CoV-2-NLuc (setting [2]) was 85 nM. Moreover, in experiment [1] (setting [3]), the IC50 stood at 21.7 nM.

Regarding `COc1cc(-c2cc3[nH]c(=O)n(-c4cnnc5ccccc45)c(=O)c3s2)c(Cl)cc1F` [Example 745], the concentration giving a half-maximal response (EC50) in the experiment on SARS-CoV-2-NLuc (setting [2]) came out at 257 nM. Besides, the IC50 in experiment [1] (setting [3]) was determined as 92 nM.

Take `COc1cc(-c2cc3[nH]c(=O)n(-c4cc(C)cnn4)c(=O)c3s2)c(Cl)cc1F` [Example 746]: in the experiment with SARS-CoV-2-NLuc (setting [4]), the EC50 worked out at 54.3 nM. Further, the IC50 in experiment [1] (setting [3]) came to 4.17 nM.

For `COc1cc(-c2cc3[nH]c(=O)n(-c4cncc(C)c4C)c(=O)c3s2)c(Cl)cc1F` [Example 747], the 50% effective concentration (EC50) in the experiment with SARS-CoV-2-NLuc (setting [4]) is 4.19 nM. Moreover, the IC50 in experiment [1] (setting [3]) came to 4.63 nM.

As for `COc1cc(-c2cc3[nH]c(=O)n(-c4cc(C(F)(F)F)cnn4)c(=O)c3s2)c(Cl)cc1F` [Example 748], the 50% effective concentration (EC50) in the experiment with SARS-CoV-2-NLuc (setting [2]) amounted to 86.5 nM. Further, in experiment [1] (setting [3]), the IC50 was 50.2 nM.

Regarding `COc1cc(-c2cc3[nH]c(=O)n(-c4cncc5nnn(C)c45)c(=O)c3s2)c(Cl)cc1F` [Example 749], in the experiment on SARS-CoV-2-NLuc (setting [4]), the concentration for a half-maximal effect (EC50) amounted to 32.6 nM. Further, the IC50 in experiment [1] (setting [3]) was determined as 7.35 nM.

On to `COc1cc(-c2cc3[nH]c(=O)n(-c4cncc5c4n(C)c(=O)n5C)c(=O)c3s2)c(Cl)cc1F` [Example 750], for which the EC50 with SARS-CoV-2-NLuc (setting [4]) was found to be 36.6 nM. Further, the IC50 in experiment [1] (setting [3]) came to 7.76 nM.

Regarding `COc1cc(-c2cc3[nH]c(=O)n(-c4cncc5cnn(C)c45)c(=O)c3s2)c(C#N)cc1F` [Example 751, 5-fluoro-4-methoxy-2-[3-(1-methylpyrazolo[4,3-c]pyridin-7-yl)-2,4-dioxo-1H-thieno[3,2-d]pyrimidin-6-yl]benzonitrile], the EC50 in the experiment with SARS-CoV-2-NLuc (setting [4]) stood at 216 nM. The IC50 in experiment [1] (setting [3]) worked out at 11.1 nM.

For the compound `COc1cc(-c2cc3[nH]c(=O)n(-c4cncc5c4c(C)nn5C)c(=O)c3s2)c(Cl)cc1F` [Example 752], the EC50 in the experiment on SARS-CoV-2-NLuc (setting [4]) came out at 8.41 nM. Besides, in experiment [1] (setting [3]), the IC50 was found to be 6.96 nM.

In the case of `COc1cc(-c2cc3[nH]c(=O)n(-c4cncc(C5CC5)c4)c(=O)c3s2)c(Cl)cc1F` [Example 753], the EC50 in the experiment with SARS-CoV-2-NLuc (setting [2]) stood at 14.6 nM. Besides, the IC50 in experiment [1] (MPro IC50, recombinant SARS-CoV-2 Mpro 7.5 nM) was determined as 6.88 nM.

On to `COc1cc(-c2cc3[nH]c(=O)n(-c4cncc5nn(C)c(C)c45)c(=O)c3s2)c(Cl)cc1F` [Example 754], for which the concentration for a half-maximal effect (EC50) in the experiment on SARS-CoV-2-NLuc (setting [4]) was 76.3 nM. Besides, the IC50 in experiment [1] (setting [3]) came out at 9.21 nM.

As to `COc1cc(-c2cc3c(s2)c(=O)n(-c2cncc4nc(C5CCC5)n(C)c24)c(=O)n3CCC#N)c(Cl)cc1F` [Example 755], in the experiment with SARS-CoV-2-NLuc (setting [4]), the EC50 came to 243 nM. For the same compound, the IC50 in experiment [1] (setting [3]) is 33.3 nM.

Consider `COc1cc(-c2cc3c(s2)c(=O)n(-c2cncc4nc(-c5ccccc5F)n(C)c24)c(=O)n3CCC#N)c(Cl)cc1F` [Example 756], for which the EC50 with SARS-CoV-2-NLuc (setting [4]) came out at 90.7 nM. The IC50 in experiment [1] (setting [3]) stood at 19.6 nM.

With `COc1cc(-c2cc3c(s2)c(=O)n(-c2cncc4nc(-c5coc(C)n5)n(C)c24)c(=O)n3CCC#N)c(Cl)cc1F` [Example 757], the EC50 with SARS-CoV-2-NLuc (setting [4]) was found to be 40.3 nM. In addition, the IC50 in experiment [1] (setting [3]) came out at 11.4 nM.

As for `COc1cc(-c2cc3c(s2)c(=O)n(-c2cncc4nc(-c5ccc(F)cc5)n(C)c24)c(=O)n3CCC#N)c(Cl)cc1F` [Example 758], in the experiment with SARS-CoV-2-NLuc (setting [4]), the EC50 was determined as 142 nM. Besides, in experiment [1] (setting [3]), the half-maximal inhibitory concentration (IC50) is 18.9 nM.

Consider `COc1cnc(Cl)c(-c2cc3c(s2)c(=O)n(-c2cncc4ccccc24)c(=O)n3CC2(C#N)CC2)c1` [Example 759], for which the EC50 in the experiment on SARS-CoV-2-NLuc (setting [4]) was 4.85 nM. For the same compound, the IC50 in experiment [1] (setting [3]) was 5.39 nM.

In the case of `COc1cnc(Cl)c(-c2cc3[nH]c(=O)n(-c4cncc5cccc(F)c45)c(=O)c3s2)c1` [Example 760], in the experiment on SARS-CoV-2-NLuc (setting [4]), the EC50 was 93.7 nM. In experiment [1] (setting [3]), the IC50 was 15.6 nM.

Regarding `COc1cnc(C#N)c(-c2cc3[nH]c(=O)n(-c4cncc5cccc(F)c45)c(=O)c3s2)c1` [Example 761], the half-maximal effective concentration (EC50) with SARS-CoV-2-NLuc (setting [2]) came out at 398 nM. Besides, the IC50 in experiment [1] (setting [3]) was 45.6 nM.
